Measured values published in patent US12161643B2, “Stable formulations of SHR0302” (ARCUTIS BIOTHERAPEUTICS, INC., priority 2021, dated 2024).

Experiments:
[1] = Solubility of SHR0302 in water at varying pH values in a phosphate buffer; type: physicochemical; settings: phosphate buffer system; FIG. 1
Procedure: The solubility of SHR0302 was determined in water at varying pH values in a phosphate buffer. FIG. 1 illustrates a plot of SHR0302 (also known as ARQ-250) concentration in μg/mL in water as a function of pH in a phosphate buffer system.

[2] = Solubility of SHR0302 in water at varying pH values in phosphate and citrate buffer systems; type: physicochemical; settings: FIG. 2
Procedure: The solubility of SHR0302 was determined in water at varying pH values in various buffer systems. FIG. 2 illustrates a plot of SHR0302 concentration in μg/mL in water as a function of pH in two phosphate buffer systems and a citrate buffer system.

JAK1 = JAK1 (Homo sapiens, UniProt P23458); settings: cited from earlier work
Sequence of JAK1 (P23458 whole entry): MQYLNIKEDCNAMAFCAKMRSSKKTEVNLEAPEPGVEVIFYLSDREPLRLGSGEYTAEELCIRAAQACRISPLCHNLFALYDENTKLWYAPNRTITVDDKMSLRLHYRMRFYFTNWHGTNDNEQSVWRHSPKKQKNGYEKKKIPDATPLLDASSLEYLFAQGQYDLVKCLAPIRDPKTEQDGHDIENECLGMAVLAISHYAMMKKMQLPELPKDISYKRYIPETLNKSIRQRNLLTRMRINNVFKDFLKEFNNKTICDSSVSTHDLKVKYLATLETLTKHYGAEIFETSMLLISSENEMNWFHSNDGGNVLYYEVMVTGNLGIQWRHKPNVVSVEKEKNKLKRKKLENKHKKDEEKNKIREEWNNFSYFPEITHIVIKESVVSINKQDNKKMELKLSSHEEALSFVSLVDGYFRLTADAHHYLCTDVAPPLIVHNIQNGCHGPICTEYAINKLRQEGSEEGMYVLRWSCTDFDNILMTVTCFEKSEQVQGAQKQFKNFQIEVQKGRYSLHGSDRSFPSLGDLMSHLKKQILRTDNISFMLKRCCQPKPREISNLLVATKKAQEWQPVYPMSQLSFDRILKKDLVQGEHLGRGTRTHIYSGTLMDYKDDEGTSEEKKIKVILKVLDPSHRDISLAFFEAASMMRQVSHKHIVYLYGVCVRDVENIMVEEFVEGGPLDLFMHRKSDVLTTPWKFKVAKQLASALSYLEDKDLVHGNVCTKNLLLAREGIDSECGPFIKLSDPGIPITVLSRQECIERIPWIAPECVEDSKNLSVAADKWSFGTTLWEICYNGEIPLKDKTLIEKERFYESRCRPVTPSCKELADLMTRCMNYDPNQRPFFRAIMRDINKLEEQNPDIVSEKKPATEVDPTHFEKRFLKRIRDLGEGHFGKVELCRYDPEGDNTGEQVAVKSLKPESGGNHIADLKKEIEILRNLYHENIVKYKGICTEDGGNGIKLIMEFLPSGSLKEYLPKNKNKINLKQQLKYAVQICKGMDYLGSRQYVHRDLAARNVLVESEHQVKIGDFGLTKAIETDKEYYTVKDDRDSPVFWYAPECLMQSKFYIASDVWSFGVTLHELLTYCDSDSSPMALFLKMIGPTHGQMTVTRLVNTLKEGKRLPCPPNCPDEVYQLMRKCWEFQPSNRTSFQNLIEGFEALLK

- solubility in water as a function of pH [1]: decreases as pH levels increase
- solubility in water as a function of pH [2]: decreases as pH levels increase
SMILES: COc1nsc(NC(=O)N2C[C@H]3C[C@H](N(C)c4ncnc5[nH]ccc45)C[C@H]3C2)n1 [SHR0302, (3aR,5S,6aS)—N-(3-methoxyl-1,2,4-thiadiazol-5-yl)-5-(methyl(7H-pyrrolo[2,3-d]pyrimidin-4-yl)amino)hexahydrocyclopenta[c]pyrrole-2(1H)-carboxamide]
- selectivity for JAK1 over JAK2 (JAK1; JAK1 over JAK2): high selectively for JAK1 over JAK2
- inhibition of JAK1 (JAK1): potent
